target: p38-α kinase (Homo sapiens, UniProt Q16539); experiment: Human whole blood assay for p38 kinase inhibition, diluted (1:10) whole blood, LPS-induced TNF-α by ELISA; assay type: cell-based; details: LPS-stimulated TNF-α production
Experimental: For each of the assay procedures described below, the TNF-α production correlates to the activity of p38-α kinase.
A. Human Whole Blood Assay for p38 Kinase Inhibition
Venous blood is collected from healthy male volunteers into a heparinized syringe and is used within 2 hours of collection. Test compounds are dissolved in 100% DMSO and 1 μl aliquots of drug concentrations ranging from 0 to 1 mM are dispensed into quadruplicate wells of a 24-well microtiter plate (Nunclon Delta SI, Applied Scientific, So. San Francisco, Calif.). Whole blood is added at a volume of 1 ml/well and the mixture is incubated for 15 minutes with constant shaking (Titer Plate Shaker, Lab-Line Instruments, Inc., Melrose Park, Ill.) at a humidified atmosphere of 5% CO2 at 37° C. Whole blood is cultured either undiluted or at a final dilution of 1:10 with RPMI 1640 (Gibco 31800+NaHCO3, Life Technologies, Rockville, Md. and Scios, Inc., Sunnyvale, Calif.). At the end of the incubation period, 10 μl of LPS (E. coli 0111:B4, Sigma Chemical Co., St. Louis, Mo.) is added to each well to a final concentration of 1 or 0.1 μg/ml for undiluted or 1:10 diluted whole blood, respectively. The incubation is continued for an additional 2 hours. The reaction is stopped by placing the microtiter plates in an ice bath and plasma or cell-free supernates are collected by centrifugation at 3000 rpm for 10 minutes at 4° C. The plasma samples are stored at −80° C. until assayed for TNF-α levels by ELISA, following the directions supplied by Quantikine Human TNF-α assay kit (R&D Systems, Minneapolis, Minn.).
IC50 values are calculated using the concentration of inhibitor that causes a 50% decrease as compared to a control. IC50 values can be determined with curve-fitting plots available with common software packages. Approximate IC50 values can be calculated using formula: IC50 (app)=A×i/(1−A)
where A=fractional activity and i=total inhibitor concentration.
IC50 values are calculated using the concentration of inhibitor that causes a 50% decrease as compared to a control.

Sequence of p38-α kinase (Q16539 whole entry): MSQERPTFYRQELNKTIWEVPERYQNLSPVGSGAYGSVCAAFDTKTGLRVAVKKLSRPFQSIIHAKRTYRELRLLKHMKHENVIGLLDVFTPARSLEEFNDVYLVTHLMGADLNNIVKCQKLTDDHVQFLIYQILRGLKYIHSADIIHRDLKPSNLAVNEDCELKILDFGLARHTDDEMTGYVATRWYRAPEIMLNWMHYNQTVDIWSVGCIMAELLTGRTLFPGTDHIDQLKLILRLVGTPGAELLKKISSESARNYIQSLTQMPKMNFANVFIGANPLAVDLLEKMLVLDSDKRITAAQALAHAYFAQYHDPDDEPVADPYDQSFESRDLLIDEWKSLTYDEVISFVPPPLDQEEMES

Question: `CCN(C(=O)c1ccc2ccccc2c1)c1ccnc(N[C@@H](C)c2ccccc2)n1` [Example 20, Naphthalene-2-carboxylic acid ethyl-[2-(1S-phenyl-ethylamino)-pyrimidin-4-yl]-amide] was tested. Which IC50 did it give?
Answer: < 1 µM

Question: `C[C@H](Nc1nccc(N(Cc2ccc(F)cc2)C(=O)c2ccc3ccccc3c2)n1)c1ccccc1` [Example 70] was tested. Which IC50 did it give?
Answer: < 1 µM

Question: `CC(C)N(C(=O)c1ccc2ccccc2c1)c1ccnc(N[C@@H](C)c2ccccc2)n1` [Example 73] was tested. Which IC50 did it give?
Answer: < 1 µM

Question: How did the IC50 turn out when `COCCN(C(=O)c1ccc2ccccc2c1)c1ccnc(N[C@@H](C)c2ccccc2)n1` [Example 76] was run?
Answer: < 1 µM

Question: Which IC50 does the source give for `C[C@H](Nc1nccc(N(C)C(=O)c2ccc3ccccc3c2)n1)c1ccccc1` [Example 77] here?
Answer: < 1 µM

Question: For `C[C@H](Nc1nccc(N(Cc2cccnc2)C(=O)c2ccc3ccccc3c2)n1)c1ccccc1` [Example 83], which IC50 is on record?
Answer: < 1 µM

Question: `CCN(C(=O)c1ccc2c(c1)CCO2)c1ccnc(N[C@@H](C)c2ccccc2)n1` [Example 84] was tested. Which IC50 did it give?
Answer: < 1 µM

Source: patent publication US20060199821A1, “Heterocyclic amides and sulfonamides” (Scios, Inc., priority 2003, published 2006)
